Laboratory results reported in patent publication US9408866B2, “Method for detoxification or measurement of at least one compound or at least one fluid in a host body” (NIVA, priority 2012, dated 2016).
Marks after values point to notes of the source that are not given here.

Key:
[1] = Contaminant masses in explanted silicone breast prostheses (acetone extraction, GC-MS); type: in vivo, human
Excerpt: Silicone prostheses were obtained following breast implant surgery during a period spanning from July 2010 to January 2012. Reasons for explanation ranged from severe capsular contracture to a wish for a change in prosthesis size.
Prostheses were collected during surgical explanation from patients and wrapped individually in clean aluminium foil and stored in labelled plastic bags.
As soon as possible after, samples were stored in a freezer. Samples were then transported on ice to the laboratory and stored at −20° C. until analysis. For this proof-of-concept study, 9 prostheses were extracted and analysed. […] Two prostheses were duplicates and their analysis aimed to investigate the reproducibility of the analytical steps as well as of the representativeness of the sampling (samples 2, 6, and 9 in Table 1). All prostheses were made of medical silicone gel enclosed in an outer silicone shell filled with gel with various degree of cohesiveness. Differences between prostheses from various producers include volume, type of silicone material, surface texture and thickness of the outer shell and cohesive degree of the filling gel. Prostheses were tinted and tinting from light yellow to orange appeared (from visual inspection only) dependent on exposure time. […]
Silicone prosthesis extraction were performed in batches of 10-12 samples and included a blank prosthesis (volume of 200-450 cm^3), a spiked prosthesis to assess extraction efficiency and a solvent blank to evaluate potential contamination during extraction and extract clean-up. Extraction of the whole prostheses was undertaken in pre-baked 2 L beakers kept in the dark to prevent photo degradation. Samples were brought to room temperature and the surface was rinsed with ultrapure water and dried with a clean tissue. Connective tissue capsule attached to the surface of prostheses were removed. Samples were extracted by soaking in 1 L of acetone for 24 hours. Acetone was chosen for its low capacity to swell the silicone matrix and because of the ease with which it can volatilise. Recovery standards for organochlorines, PCBs and PBDEs (including for BDE-209) were added to the acetone. It was expected that 24 hours is sufficient for chemicals (present in either phases) to partition between the solvent phase and the silicone prosthesis. The acetone was replaced by another 1 L of acetone and samples were extracted for a further 24 hours. The two volumes of acetone were combined and reduced under a gentle stream of nitrogen. Prostheses were weighed before and after solvent extraction to determine the total amount of silicone oils and other substances removed from the matrix during solvent extraction. A second set of internal standards was used to evaluate possible losses during the sample clean-up step. The solvent was changed to isohexane and sample clean-up consisted of repeated sulphuric acid treatment until no colouring of the extract could be observed. Extract were then passed through a silica-filled solid phase extraction column and eluted with dichloromethane or isohexane. Extracts were reduced to an adequate volume before analysis.
Analytes were separated on a 30 m-long DB-5MS column (0.25 mm i.d. and 0.25 μm film thickness, Agilent JW Scientific, Santa Clara, USA) following 1 μL pulsed splitless injection (pulse pressure 20 psi for 1.2 min, injector temperature of 300° C.). The helium gas flow was set to 1.2 mL min^−1 and the GC oven temperature programme consisted of a step at 60° C. (held for 2 min) before an increase to 250° C. (at the rate 7° C. min^−1) and a final increase to 310° C. (at the rate of 15° C. min^−1) with this temperature held constant for a further 5 min. Ion source, quadrupole and transfer line temperatures were set to 230, 150 and 280° C., respectively. Quantification was performed using the relative response of surrogate internal standards (CB-30, CB-53 and CB-204) and 7-point calibration curves. […]

[2] = seal lipids, taken from Jahnke et al. (2008); cited from earlier work
[3] = mean, Norwegian women (n = 20) age 25-59, Thomsen et al. (2007); cited from earlier work
[4] = milk from Norwegian women (n = 70), Thomsen et al. (2011); cited from earlier work
[5] = POP concentration in lipids estimated from concentrations measured in prostheses; type: in vivo, human; conditions: estimated from silicone prosthesis concentrations, silicone density of 1.0 and Klip-sil values
Experimental: The representativeness and suitability of POP concentrations measured in explanted silicone prostheses can be evaluated through comparison with literature data on POP levels measured in breast milk or blood serum from Norwegian women. Using seal oil lipid-to-silicone partition coefficients, Klip-sil for PCBs and DDTs, estimates of POP concentrations in lipids of participants of the present invention were calculated. This approach assumes that the influence of the type of silicone and of lipids on lipid-silicone partition coefficients is minor.

[6] = Sample 2, duplicate explanted prostheses analysed in the same batch

SMILES | Prosthesis contaminant mass, Mean [1, 6] | Klip-sil (lipid-silicone partition coefficient) [2] | Measured Cserum [3] | Measured Cmilk (median with range in brackets) [4] | Estimated Clipid [5] | Prosthesis contaminant mass, Mean ([1]; human, in vivo)
Brc1ccc(Oc2ccc(Br)cc2Br)cc1 [BDE-28] | 0.5 ng sample^−1 | – | – | – | – | –
Brc1ccc(Oc2ccc(Br)cc2Br)c(Br)c1 [BDE-47] | 1.6 ng sample^−1 | – | – | – | – | –
Brc1ccc(Oc2ccc(Br)c(Br)c2)cc1Br [BDE-77] | 0.8 ng sample^−1 | – | – | – | – | –
Brc1cc(Br)c(Oc2cc(Br)c(Br)cc2Br)cc1Br [BDE-153] | 3.7 ng sample^−1 | – | – | – | – | –
Brc1cc(Br)c(Oc2cc(Br)c(Br)cc2Br)c(Br)c1 [BDE-154] | 0.5 ng sample^−1 | – | – | – | – | –
Brc1c(Br)c(Br)c(Oc2c(Br)c(Br)c(Br)c(Br)c2Br)c(Br)c1Br [BDE-209] | 6.5 ng sample^−1 | – | – | – | – | –
Clc1ccc(Cl)c(-c2cc(Cl)ccc2Cl)c1 [CB-52] | – | 19.2 g/g | – | – | – | –
Clc1ccc(Cl)c(-c2cc(Cl)c(Cl)cc2Cl)c1 [CB-101] | 7.6 ng sample^−1 | 26.3 g/g | 5.8 ng g^−1 lipid | 6.4 (1.8-36)^f ng g^−1 lipid | 0.5 ng/g | –
Clc1ccc(-c2ccc(Cl)c(Cl)c2Cl)cc1Cl [CB-105] | 11 ng sample^−1 | 35.4 g/g | – | 1.8 (0.89-3.2)^f ng g^−1 lipid | 1.5 ng/g | –
Clc1ccc(-c2cc(Cl)c(Cl)cc2Cl)cc1Cl [CB-118] | 52 ng sample^−1 | 35.2 g/g | 8.0 ng g^−1 lipid | 9.3 (4.0-15)^f ng g^−1 lipid | 7.5 ng/g | –
Clc1cc(Cl)c(-c2ccc(Cl)c(Cl)c2Cl)cc1Cl [CB-138] | 123 ng sample^−1 | 34.0 g/g | 20 ng g^−1 lipid | 16 (8-30)^f ng g^−1 lipid | 27 ng/g | –
Clc1cc(Cl)c(-c2cc(Cl)c(Cl)cc2Cl)cc1Cl [CB-153] | 252 ng sample^−1 | 38.1 g/g | 43 ng g^−1 lipid | 38 (20-68) ng g^−1 lipid | 62 ng/g | –
Clc1ccc(-c2cc(Cl)c(Cl)c(Cl)c2Cl)cc1Cl [CB-156] | 15 ng sample^−1 | 50.8 g/g | – | 3.2 (1.5-5.9)^f ng g^−1 lipid | 4.5 ng/g | –
Clc1cc(Cl)c(-c2cc(Cl)c(Cl)c(Cl)c2Cl)cc1Cl [CB-180] | 9.3 ng sample^−1 | 49.4 g/g | 34 ng g^−1 lipid | 17 (8.5-32)^f ng g^−1 lipid | 4.2 ng/g | –
Clc1c(Cl)c(Cl)c(Cl)c(Cl)c1Cl [HCB, hexachlorobenzene] | 181 ng sample^−1 | – | – | – | 10.9 ng/g | –
ClC(Cl)=C(Cl)c1c(Cl)c(Cl)c(Cl)c(Cl)c1Cl [OCS, octachlorostyrene] | – | – | – | – | – | 3.5 ng sample^−1
Clc1cc(Cl)c(Cl)c(Cl)c1Cl [PeCB, pentachlorobenzene] | 5.6 ng sample^−1 | – | – | – | – | –
Clc1ccc(C(c2ccccc2Cl)C(Cl)(Cl)Cl)cc1 (centres unmarked) [o,p′-DDT] | – | 21.3 g/g | – | – | 0.8 ng/g | –
ClC(Cl)=C(c1ccc(Cl)cc1)c1ccc(Cl)cc1 [p,p′-DDE] | 543 ng sample^−1 | – | – | – | – | –
Clc1ccc(C(c2ccc(Cl)cc2)C(Cl)(Cl)Cl)cc1 [p,p′-DDT] | 38 ng sample^−1 | 50.7 g/g | – | – | 5.7 ng/g | –
